Measured values from US11834401B2, “Treating and preventing diseases by modulating cell mechanics” (THE JOHNS HOPKINS UNIVERSITY, priority 2013, dated 2023).

Assays:
HEK293 cells = assay: Micropipette aspiration creep test; assay type: cell-based, human; conditions: 500 nM, 1 hr, 0.15 nN/μm^2
Experimental: (§1) The instrumental and experimental setups have been previously described (Effler J C, et al., 2006; Kee Y-S, et al., 2013). Micropipette aspiration assays were all carried out in growth media with 0.1% DMSO. For cortical tension measurements of Dictyostelium cells, pressure was applied to the cell cortex with a micropipette (2-3 m radius, Rp) to the equilibrium pressure (ΔP) where the length of the cell inside the pipette (Lp) was equal to Rp. The effective cortical tension (Teff) was calculated by applying the Young-Laplace equation: ΔP=2Teff(1/Rp-1/Rc), where Rc is the radius of the cell and ΔP is the equilibrium pressure when Lp=Rp (Derganc J, et al., 2000; Octtaviani E, et al., 2006). For creep tests on mammalian strains, a constant aspiration stress was applied over 60 s. The micropipette radius was 3.5-4.5 m. For quantification, the Lp/Rp ratio values was measured every two seconds and plotted as a function of time. A10.7 and HEK293 cells could only be aspirated at a low pressure range (0.15 nN/μm^2), while HPDE, ASPC-1, and HL-60 cells could be aspirated at higher pressure ranges (0.25 nN/μm^2) because they were stiffer.

ASPC-1 cells [1] = assay: Micropipette aspiration creep test; assay type: cell-based, human; conditions: 500 nM, 1 hr, 0.25 nN/μm^2
Experimental: as §1

AsPC-1 cells [2] = assay: Hemi-splenectomy PDAC liver metastasis model; assay type: in vivo, athymic NCr-nu/nu mice; conditions: 5 mg/ml, 200 μl IP every other day
Experimental: Therefore, the inventors tested 4-HAP in a mouse model for PDAC metastasis. Hemi-splenectomies with 4-HAP pre-treated metastatic AsPC-1 cells were performed on nude mice which were subsequently divided into three groups: control, PBS (200 μl PBS IP injections, every other day), and 4-HAP (5 mg/ml, 200 μl IP injections, every other day). Mice were harvested at 5-weeks post-surgery, when the first mouse expired. Metastasis to the liver was observed and quantified by an in-house Matlab script that determined surface area tumor coverage.
Hemi-splenectomies were performed on athymic NCr-nu/nu mice (Charles River Laboratories) with low passage AsPC-1 cells as previously described. In short, laparotomies were performed on anesthetized mice in which the upper pole of a divided spleen was reinserted into the peritoneum while 1×10^7 AsPC-1 cells prepared in phosphate buffered saline were injected into the lower splenic pole, chased by an equal volume of phosphate buffered saline. The pancreas and splenic vessels were ligated and the peritoneum was closed.
AsPC-1 cells were pretreated with 50 μM 4-HAP or PBS 24 hr prior to injection during hemisplenectomies. […]
Quantifications of mouse livers were performed using a custom-designed Matlab script. […] The percent coverage of tumor was calculated.

ASPC-1 cells [3] = assay: Retrograde actin flow (SiR-actin, lattice light-sheet); assay type: cell-based, human; conditions: 500 nM
Experimental: AsPC-1 cells were grown on collagen I-coated (50 μg/ml) 5-mm coverslips for 16 hrs and then treated with 100-nM SiR-Actin (Cytoskeleton, Inc) and […] Verapamil for 4 hrs in Leibovitz L-15 without phenol red media, with or without 4-HAP (500 nM). Coverslips were transferred to the imaging chamber of the Lattice Light-Sheet Microscope (LLSM) (Intelligent Imaging Innovations) containing fresh Leibovitz L-15 media without SiR-Actin and verapamil plus the corresponding 4-HAP concentration. Cells were imaged for 3-5 min at 2-3-sec intervals, 50-150 planes per 3D stack, with a Nikon CFI75 Apochromat 25×/1.1 water-dipping objective. Retrograde actin flow was measured using ImageJ (rsb.info.nih.gov/ij). Datasets were independently analyzed by multiple investigators.

CC(=O)c1ccc(O)cc1 [4-HAP, 4-hydroxyacetophenone]
deformability in creep test (HEK293 cells): stiffens the soft HEK293 cells | deformability in creep test (ASPC-1 cells [1]): stiffens ASPC-1 cells, shifting them towards HPDE-like mechanics | tumor formation (liver weights and tumor coverage) (AsPC-1 cells [2]): reduction in tumor formation | reduction in surface tumor load (liver tumor coverage) (AsPC-1 cells [2]; 5-weeks post-surgery): 50% | detectability of actin flow (ASPC-1 cells [3]): undetectable levels of actin flow | reduction in retrograde actin flow velocity over untreated controls (ASPC-1 cells [3]; cells in which flow could be measured): 50%
